Assay [1] concerns the target T1, IDO (Homo sapiens (Human), UniProt P14902). Description: Kynurenine assay in IFN-γ-stimulated Hela cells. The class given is cell-based. To be noted: 20 h, read-out: Hela Kyurenine (IC50). The essentials:
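Kynurenine in supernatant is read at 490 nm after Ehrlich reagent (10 min RT), following TCA stop and 30 min at 50° C hydrolysis. Before that, Hela cells in phenol red-free RPMI/10% FBS were co-treated 20 h at 37° C with 100 ng/mL IFN-γ and compound (30 μM top, 3-fold series to 1.5 nM).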

Assay [2] concerns the target T1, IDO. As to the kind of experiment: LLE_IDO_ABS_DR (IDO assay, method not described).

Results on 23 molecules are retold here after patent publication US9765018B2, “IDO inhibitors” (BRISTOL-MYERS SQUIBB COMPANY, priority 2013, dated 2017).

Molecules are shown by their SMILES.

In general, IC50 refers to the concentration at which inhibition is half-maximal.

T1 sequence (P14902 whole entry): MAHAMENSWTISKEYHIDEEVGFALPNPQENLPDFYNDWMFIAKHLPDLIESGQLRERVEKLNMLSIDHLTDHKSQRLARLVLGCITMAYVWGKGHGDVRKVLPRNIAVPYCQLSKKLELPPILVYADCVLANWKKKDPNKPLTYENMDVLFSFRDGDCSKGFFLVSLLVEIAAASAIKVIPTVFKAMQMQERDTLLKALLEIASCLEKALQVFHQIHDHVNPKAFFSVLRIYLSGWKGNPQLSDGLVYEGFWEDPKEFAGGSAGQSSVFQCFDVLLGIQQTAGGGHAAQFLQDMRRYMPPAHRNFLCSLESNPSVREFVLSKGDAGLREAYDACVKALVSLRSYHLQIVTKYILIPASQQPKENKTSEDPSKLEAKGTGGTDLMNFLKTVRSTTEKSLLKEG

`Cc1ccc(NC(=O)Nc2cc(-c3ccc(F)cc3C(=O)O)ccc2Oc2ccccc2C(C)(C)C)cc1` [Example 170, 4′-(2-tert-butylphenoxy)-4-fluoro-3′-(3-p-tolylureido)biphenyl-2-carboxylic acid]: the IC50 in assay [1] was found to be 810 nM; in assay [2], 2230 nM.
The like results for `Cc1ccc(NC(=O)Nc2cc(-c3cccc(F)c3C(=O)O)ccc2Oc2ccccc2C(C)(C)C)cc1` [Example 171, 4′-(2-tert-butylphenoxy)-3-fluoro-3′-(3-p-tolylureido)biphenyl-2-carboxylic acid] were, in that order, 90 nM and 310 nM.
On to `CC(C)(C)c1ccccc1Oc1ccc(-c2cccc(Cl)c2C(=O)O)cc1NC(=O)Nc1ccccc1Cl` [Example 172, 4′-(2-tert-butylphenoxy)-3-chloro-3′-(3-(2-chlorophenyl)ureido)biphenyl-2-carboxylic acid], for which the IC50 in assay [1] stood at 1280 nM; in assay [2], 1920 nM.
The like results for `Cc1ccccc1NC(=O)Nc1cc(-c2cccc(Cl)c2C(=O)O)ccc1Oc1ccccc1C(C)(C)C` [Example 173, 4′-(2-tert-butylphenoxy)-3-chloro-3′-(3-o-tolylureido)biphenyl-2-carboxylic acid] were, in that order, 1630 nM and 3070 nM.
For `Cc1ccc(NC(=O)Nc2cc(-c3cccc(Cl)c3C(=O)O)ccc2Oc2ccccc2C(C)(C)C)cc1` [Example 174, 4′-(2-tert-butylphenoxy)-3-chloro-3′-(3-p-tolylureido)biphenyl-2-carboxylic acid], in that order: 280 nM and 320 nM.
For `Cc1ccccc1NC(=O)Nc1cc(-c2cccc(F)c2C(=O)O)ccc1Oc1ccccc1C(C)(C)C` [Example 175, 4′-(2-tert-butylphenoxy)-3-fluoro-3′-(3-o-tolylureido)biphenyl-2-carboxylic acid], in that order: 1480 nM and 2580 nM.
With `Cc1ccc(NC(=O)Nc2cc(-c3ccc(C(F)(F)F)cc3C(=O)O)ccc2Oc2ccccc2C(C)(C)C)cc1` [Example 177, 4′-(2-tert-butylphenoxy)-3′-(3-p-tolylureido)-4-(trifluoromethyl)biphenyl-2-carboxylic acid], the IC50 in assay [1] came out at 200 nM; in assay [2], 420 nM.
The like results for `Cc1ccc(NC(=O)Nc2cc(-c3ccc(C(=O)O)nc3)ccc2Oc2ccccc2C(C)(C)C)cc1` [Example 178, 5-(4-(2-tert-butylphenoxy)-3-(3-p-tolylureido)phenyl)picolinic acid] were, in that order, 890 nM and 1740 nM.
Turning to `CC(C)(C)c1ccccc1Oc1ccc(-c2ccccc2-c2nnn[nH]2)cc1NC(=O)Nc1ccccc1` [Example 180, 1-(4-(2-tert-butylphenoxy)-2′-(1H-tetrazol-5-yl)biphenyl-3-yl)-3-phenylurea], the IC50 in assay [1] came to 150 nM; in assay [2], 270 nM.
As to `Cc1ccccc1NC(=O)Nc1cc(-c2ccccc2-c2nnn[nH]2)ccc1Oc1ccccc1C(C)(C)C` [Example 181, 1-(4-(2-tert-butylphenoxy)-2′-(1H-tetrazol-5-yl)biphenyl-3-yl)-3-o-tolylurea], the IC50 in assay [1] stood at 90 nM; in assay [2] it was 740 nM.
On to `Cc1ccc(NC(=O)Nc2cc(-c3ccccc3-c3nnn[nH]3)ccc2Oc2cccc3c2CCCC3)cc1` [Example 185, 1-(4-(5,6,7,8-tetrahydronaphthalen-1-yloxy)-2′-(1H-tetrazol-5-yl)biphenyl-3-yl)-3-p-tolylurea], for which the IC50 stood at 160 nM in assay [1] and 680 nM in assay [2].
The like results for `Cc1ccccc1NC(=O)Nc1cc(-c2ccccc2-c2nnn[nH]2)ccc1Oc1cccc2c1CCCC2` [Example 187, 1-(4-(5,6,7,8-tetrahydronaphthalen-1-yloxy)-2′-(1H-tetrazol-5-yl)biphenyl-3-yl)-3-o-tolylurea] were, in that order, 860 nM and 2330 nM.
The like results for `O=C(Nc1ccccc1F)Nc1cc(-c2ccccc2-c2nnn[nH]2)ccc1Oc1cccc2c1CCCC2` [Example 188, 1-(2-fluorophenyl)-3-(4-(5,6,7,8-tetrahydronaphthalen-1-yloxy)-2′-(1H-tetrazol-5-yl)biphenyl-3-yl)urea] were, in that order, 870 nM and 1830 nM.
For `O=C(Nc1ccc(Cl)cc1)Nc1cc(-c2ccccc2-c2nnn[nH]2)ccc1Oc1cccc2c1CCCC2` [Example 189, 1-(4-chlorophenyl)-3-(4-(5,6,7,8-tetrahydronaphthalen-1-yloxy)-2′-(1H-tetrazol-5-yl)biphenyl-3-yl)urea], in that order: 360 nM and 1240 nM.
For `CC(C)(C)c1ccccc1Oc1ccc(-c2ccccc2-c2nnn[nH]2)cc1NC(=O)Nc1ccccc1F` [Example 190, 1-(4-(2-tert-butylphenoxy)-2′-(1H-tetrazol-5-yl)biphenyl-3-yl)-3-(2-fluorophenyl)urea], the IC50 in assay [1] was 170 nM; in assay [2] it was 450 nM.
For `CCCCNC(=O)Nc1cc(-c2ccccc2-c2nnn[nH]2)ccc1Oc1ccccc1C(C)(C)C` [Example 191, 1-butyl-3-(4-(2-tert-butylphenoxy)-2′-(1H-tetrazol-5-yl)biphenyl-3-yl)urea], in that order: 340 nM and 1210 nM.
The like results for `COc1ccc(-c2ccc(Oc3ccccc3C(C)(C)C)c(NC(=O)Nc3ccccc3Cl)c2)c(-c2nnn[nH]2)c1` [Example 192, 1-(4-(2-tert-butylphenoxy)-4′-methoxy-2′-(1H-tetrazol-5-yl)biphenyl-3-yl)-3-(2-chlorophenyl)urea] were, in that order, 370 nM and 1440 nM.
The like results for `COc1ccc(-c2ccc(Oc3ccccc3C(C)(C)C)c(NC(=O)Nc3ccccc3C)c2)c(-c2nnn[nH]2)c1` [Example 193, 1-(4-(2-tert-butylphenoxy)-4′-methoxy-2′-(1H-tetrazol-5-yl)biphenyl-3-yl)-3-o-tolylurea] were, in that order, 250 nM and 1160 nM.
Regarding `Cc1cccc(NC(=O)Nc2cc(-c3ccc(C(=O)O)cc3)ccc2Oc2ccccc2C(C)(C)C)c1` [Example 201, 4′-(2-tert-butylphenoxy)-3′-(3-m-tolylureido) biphenyl-4-carboxylic acid], the IC50 in assay [1] was 780 nM; in assay [2], 8150 nM.
For `O=C(Nc1ccc(Cl)cc1)Nc1cc(-c2ccc(C(=O)O)c(Cl)c2)ccc1Oc1ccccc1C(F)(F)F` [Example 206, 3-chloro-3′-(3-(4-chlorophenyl)ureido)-4′-(2-(trifluoromethyl)phenoxy)biphenyl-4-carboxylic acid], in that order: 850 nM and 3350 nM.
The like results for `Cc1cccc(NC(=O)Nc2cc(-c3ccc(C(=O)O)c(Cl)c3)ccc2Oc2ccccc2C(C)(C)C)c1` [Example 213, 4′-(2-tert-butylphenoxy)-3-chloro-3′-(3-m-tolylureido) biphenyl-4-carboxylic acid] were, in that order, 930 nM and 2560 nM.
The like results for `CC(C)(C)c1ccccc1Oc1ccc(-c2ccc(C(=O)O)c(Cl)c2)cc1NC(=O)Nc1ccccc1Cl` [Example 215, 4′-(2-tert-butylphenoxy)-3-chloro-3′-(3-(2-chlorophenyl)ureido)biphenyl-4-carboxylic acid] were, in that order, 300 nM and 1830 nM.
As for `COc1ccccc1NC(=O)Nc1cc(-c2cccc(C(=O)O)c2)ccc1Oc1ccccc1C(C)(C)C` [Example 227, 4′-(2-tert-butylphenoxy)-3′-(3-(2-methoxyphenyl)ureido)biphenyl-3-carboxylic acid], the IC50 was found to be 930 nM in assay [1] and 10000 nM in assay [2].
